Assay results published in patent US11453904B2, “Evaluation method for permeability of porous membrane, cell evaluation method, and drug evaluation method” (FUJIFILM CORPORATION, priority 2019, dated 2022).

System: endothelial cells 301 and the smooth muscle cells 302
Test: drug evaluation method: toxicity of a drug to cells cultured on the porous membrane of a microfluidic device, read by flow rate in the lower micro flow channel
Assay type: cell-based
Conditions: cytochalasin 50 μg/ml contained in liquid A and liquid B; concluded from the increased flow-rate slope (decreased barrier property)
Description: The drug evaluation method according to the present embodiment includes culturing cells on the surface of the porous membrane 30 of the microfluidic device 110 (a step S41). […] This makes it possible to form a structure that simulates the blood vessel (the artery) in the microfluidic device 110. It is noted that the cells to be evaluated may be cultured only on one surface of the porous membrane 30.
The drug evaluation method according to the present embodiment includes exposing cells cultured on the surface of the porous membrane 30 to a drug to be evaluated (a step S42). That is, a liquid containing a drug to be evaluated is supplied to each of the upper micro flow channel 18 and the lower micro flow channel 24.
The drug evaluation method according to the present embodiment includes acquiring the evaluation indicator of the permeability of the porous membrane 30 according to any one of the first to third embodiments described above as an indicator of toxicity of the drug to be evaluated to the cells. That is, the change that occurs in the liquid accommodated in the lower micro flow channel 24 is acquired as an indicator of toxicity of the drug to be evaluated to the cells, in a case where the liquid is supplied to the upper micro flow channel 18 while the supply pressure is being changed (a step S43). […]

Substance: cytochalasin
- toxicity to the endothelial cells 301 and the smooth muscle cells 302: has toxicity
